Columns and labels:
many cell types = details: intracellular pH measurements, overnight incubation at 2 mM; cited from earlier work
[1] = in aqueous (physiological) buffers; cited from earlier work
hPBMCs = test: metabolic activity (MA) test, extracellular acidification of PBMCs; type: cell-based, human; details: hPBMCs of cancer patients, increasing PSA concentrations, FIGS. 8A-D
Procedure: Fresh peripheral blood mononuclear cells (PBMCs) were isolated by Ficoll-Paque (UNI-SEP, Novamed) and gradient centrifugation. The pellet was resuspended in working solution (WS) (PBS with calcium and magnesium) including the fluorescent probe (HPTS) at a final concentration of 5×10^6 cells/ml.
Each well in a black non-binding, low-volume 384 multi-well plate (Greiner Bio-One) was loaded with 10 μl of the PBMCs solution and 10 μl of working solution plus HPTS including one of ten reagents in 8 increasing concentrations. Thus the final concentration of the probe in each well was 1 μM, and the final concentration of the PBMCs was 2.5×10^6 cells/ml in 20 μl physiological working solution containing 10 mM phosphate buffer around pH 7.3. […] The acidification process was monitored each 5 min during 1 hour of incubation at 37° C. by a commercial fluorescence scanner (TECAN Infinite M200). First, the scanner monitored the acidification process without sealing (“OPEN” mode) during 30 min (6 cycles) and then, to avoid ventilation of CO2 and NH3 from each well, the multi-well plate was sealed hermetically (ThermalSeal RT™, EXCEL Scientific, Inc.) (“CLOSE” mode). Next, the acidification process was monitored again during 30 min (6 cycles). In order to increase the signal to noise ratio, the fluorescence intensities at 513 nm were measured sequentially under excitation at 455 nm and 403 nm per well. […]

Compound	toxicity (many cell types)	pKa [1]	MA-test profile under stimulation (hPBMCs)
O=S(=O)(O)c1cc(O)c2ccc3c(S(=O)(=O)O)cc(S(=O)(=O)O)c4ccc1c2c34 [HPTS, 8-Hydroxypyrene-1,3,6-trisulfonic acid]	low-toxicity	~7.3	
PSA: normal prostate tissue specific antigen peptide (146-154aa) recognized by cytotoxic T lymphocytes (PALGTTCYA; UniProt P07288 146-154, looked up, fragment)			marked peaks at optimal concentrations

From patent US9784731B2, “Methods of monitoring and analyzing metabolic activity profiles diagnostic and therapeutic uses of same” (priority 2011, dated 2017)
